Data set [1] deals with Beta-1 adrenergic receptor (Homo sapiens, UniProt P08588).
Description: Agonist activity at human cloned beta-1 adrenergic receptor expressed in CHO cells assessed as cAMP accumulation
Data set [2] is filed under the species Homo sapiens. The data set is described as follows: Ratio of EC50 for human cloned beta-1 adrenergic receptor to EC50 for human cloned beta3 adrenergic receptor.
The target in data set [3] is Beta-3 adrenergic receptor (Homo sapiens, UniProt P13945). The experiment in a line: Agonist activity at human cloned beta3 adrenergic receptor expressed in CHO cells assessed as cAMP accumulation. The format is functional, cell-based.
The test system of data set [4] is Canis familiaris. The experiment in a line: Ratio of AUC for drug to AUC for 3-[((7S)-7-{[(2R)-2-(3-Chlorophenyl)-2-hydroxyethyl]amino}-5,6,7,8-tetrahydro-2-naphthalenyl)oxy]benzoic acid hydrochloride in dog at 0.1 or 0.20 mg/kg, po by cassette dosing assay. The format is ADME, organism-based, Canis lupus familiaris. Also noted: dose 0.2 mg/kg, route oral. To be noted: in vivo, 0.2 mg/kg.

Data set [5] has as its system Canis familiaris. The experiment in a line: Ratio of Cmax for drug to Cmax for 3-[((7S)-7-{[(2R)-2-(3-Chlorophenyl)-2-hydroxyethyl]amino}-5,6,7,8-tetrahydro-2-naphthalenyl)oxy]benzoic acid hydrochloride in dog at 0.1 or 0.20 mg/kg, po by cassette dosing assay. The format is ADME, organism-based, Canis lupus familiaris. Also noted: dose 0.2 mg/kg, route oral. To be noted: in vivo, 0.2 mg/kg.

The target of data set [6] is Beta-2 adrenergic receptor (Homo sapiens, UniProt P07550). The experiment in a line: Agonist activity at human beta2 adrenergic receptor expressed in CHO cells assessed as cAMP accumulation. In kind it is functional, cell-based. (cAMP levels reflect the balance of adenylyl cyclase and phosphodiesterase activity.)

The values below come from ChEMBL document CHEMBL1155947, “Discovery of a novel series of benzoic acid derivatives as potent and selective human beta3 adrenergic receptor agonists with good oral bioavailability. 3. Phenylethanolaminotetraline (PEAT) skeleton containing biphenyl or biphenyl ether moiety” (J Med Chem, 2008).

SMILES strings stand for the structures. Where only a bound is given, the exact number is not on record here.

Sequence of Beta-2 adrenergic receptor (P07550 whole entry): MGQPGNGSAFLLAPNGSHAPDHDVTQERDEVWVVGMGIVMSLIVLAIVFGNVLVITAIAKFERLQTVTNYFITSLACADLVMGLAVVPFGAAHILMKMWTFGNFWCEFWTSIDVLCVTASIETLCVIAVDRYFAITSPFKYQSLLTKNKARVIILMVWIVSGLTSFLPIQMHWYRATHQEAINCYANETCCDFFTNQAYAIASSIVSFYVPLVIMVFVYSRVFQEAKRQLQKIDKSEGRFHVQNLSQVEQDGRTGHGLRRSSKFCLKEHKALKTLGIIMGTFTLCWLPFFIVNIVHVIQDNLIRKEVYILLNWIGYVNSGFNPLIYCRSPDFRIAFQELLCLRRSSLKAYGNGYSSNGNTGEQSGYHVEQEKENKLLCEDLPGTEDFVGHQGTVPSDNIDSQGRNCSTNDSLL
Sequence of Beta-3 adrenergic receptor (P13945 whole entry): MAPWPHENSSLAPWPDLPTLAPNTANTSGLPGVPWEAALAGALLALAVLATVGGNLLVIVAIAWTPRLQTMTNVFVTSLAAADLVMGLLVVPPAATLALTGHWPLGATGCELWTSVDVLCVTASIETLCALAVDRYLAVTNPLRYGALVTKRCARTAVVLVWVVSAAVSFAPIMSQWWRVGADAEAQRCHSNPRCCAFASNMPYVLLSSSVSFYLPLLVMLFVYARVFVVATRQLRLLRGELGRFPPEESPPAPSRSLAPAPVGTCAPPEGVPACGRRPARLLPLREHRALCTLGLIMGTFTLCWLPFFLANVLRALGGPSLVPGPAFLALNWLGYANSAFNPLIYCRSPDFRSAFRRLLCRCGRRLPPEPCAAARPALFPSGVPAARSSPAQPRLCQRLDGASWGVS
Sequence of Beta-1 adrenergic receptor (P08588 whole entry): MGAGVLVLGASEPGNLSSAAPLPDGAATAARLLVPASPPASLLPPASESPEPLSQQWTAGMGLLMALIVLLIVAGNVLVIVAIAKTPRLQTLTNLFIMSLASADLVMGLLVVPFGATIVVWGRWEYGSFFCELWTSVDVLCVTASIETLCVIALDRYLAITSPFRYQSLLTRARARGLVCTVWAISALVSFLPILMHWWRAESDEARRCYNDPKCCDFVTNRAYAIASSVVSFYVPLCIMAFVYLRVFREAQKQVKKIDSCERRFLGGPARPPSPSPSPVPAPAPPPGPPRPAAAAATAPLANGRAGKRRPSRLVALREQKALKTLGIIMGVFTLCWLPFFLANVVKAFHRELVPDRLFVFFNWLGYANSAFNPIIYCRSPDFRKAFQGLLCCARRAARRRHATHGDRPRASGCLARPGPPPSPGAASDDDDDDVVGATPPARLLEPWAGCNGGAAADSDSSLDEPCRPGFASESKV

What is called EC50 is the midpoint of the concentration-response curve. Consider `O=C(O)c1cccc(-c2ccc3c(c2)C[C@@H](NC[C@H](O)c2cccc(Cl)c2)CC3)c1`, for which the EC50 in data set [1] was more than 100 nM; in data set [3], 29 nM. Also, the Ratio EC50 in data set [2] is more than 3.4.

With `O=C(O)c1ccc(-c2ccc3c(c2)C[C@@H](NC[C@H](O)c2cccc(Cl)c2)CC3)s1`, the EC50 was more than 1000 nM in data set [1] and 2.4 nM in data set [3]. Besides, the Ratio EC50 in data set [2] is more than 417.

As to `CC(=O)Nc1cc(Oc2ccc3c(c2)C[C@@H](NC[C@H](O)c2cccc(Cl)c2)CC3)cc(C(=O)O)c1`, the results for the EC50 in data set [1] and in data set [3] were 360 nM and 1.3 nM, respectively. Further, in data set [2], the Ratio EC50 was 277. In addition, the “Ratio AUC” value in data set [4] was determined as 0.06. Further, the Ratio in data set [5] was found to be 0.1.

As for `O=C(O)COc1cccc(-c2ccc3c(c2)C[C@@H](NC[C@H](O)c2cccc(Cl)c2)CC3)c1`, the results for the EC50 in data set [1] and in data set [3] were more than 100 nM and 10 nM, respectively. Besides, the Ratio EC50 in data set [2] was more than 10.

Consider `O=C(O)c1cccc(Oc2ccc3c(c2)C[C@@H](NC[C@H](O)c2cccnc2)CC3)c1`, for which the EC50 in data set [1] is more than 100 nM; in data set [3], 20 nM. The Ratio EC50 in data set [2] is more than 5. Further, in data set [4], the “Ratio AUC” value came out at 0.32. Further, in data set [5], the Ratio is recorded as 0.5.

Regarding `O=C(O)c1ccc(-c2ccc3c(c2)C[C@@H](NC[C@H](O)c2cccc(Cl)c2)CCC3)cc1`, the EC50 in data set [1] and in data set [3] was more than 100 nM each time.

Consider `O=C(O)c1cc(NC2CCCCC2)cc(Oc2ccc3c(c2)C[C@@H](NC[C@H](O)c2cccc(Cl)c2)CC3)c1`, for which the half-maximal effective concentration (EC50) is 69 nM in data set [1] and 0.78 nM in data set [3]. Besides, the Ratio EC50 in data set [2] was 88.

Consider `O=C(O)COc1cccc(Oc2ccc3c(c2)C[C@@H](NC[C@H](O)c2cccc(Cl)c2)CC3)c1`, for which the EC50 in data set [1] is more than 100 nM; in data set [3], 22 nM. The Ratio EC50 in data set [2] is more than 4.5.

For the compound `Nc1cc(Oc2ccc3c(c2)C[C@@H](NC[C@H](O)c2cccc(Cl)c2)CC3)cc(C(=O)O)c1`, the EC50 came to 480 nM in data set [1] and 3.2 nM in data set [3]. Moreover, the Ratio EC50 in data set [2] was 150. For the same compound, the “Ratio AUC” value in data set [4] worked out at 0.2. In addition, in data set [5], the Ratio worked out at 0.26.

`O=C(O)c1ccc(Oc2ccc3c(c2)C[C@@H](NC[C@H](O)c2cccc(Cl)c2)CC3)cc1`: the EC50 is more than 100 nM in data set [1] and 37 nM in data set [3]. Also, the Ratio EC50 in data set [2] is more than 2.7.

For the compound `CCCNc1cc(Oc2ccc3c(c2)C[C@@H](NC[C@H](O)c2cccc(Cl)c2)CC3)cc(C(=O)O)c1`, the EC50 in data set [1] came to 173 nM; in data set [3], 0.77 nM. For the same compound, the Ratio EC50 in data set [2] turned out to be 224.

In the case of `O=C(O)c1ccc(Oc2ccc3c(c2)C[C@@H](NC[C@H](O)c2cccc(Cl)c2)CCC3)cc1`, the EC50 in data set [1] and in data set [3] was more than 100 nM in each case.

With `COc1ccc(Oc2ccc3c(c2)C[C@@H](NC[C@H](O)c2cccc(Cl)c2)CC3)cc1C(=O)O`, the EC50 in data set [1] is more than 1000 nM; in data set [6], more than 1000 nM; in data set [3], 6 nM. For the same compound, in data set [2], the Ratio EC50 was more than 166.

`COc1cc(Oc2ccc3c(c2)C[C@@H](NC[C@H](O)c2cccc(Cl)c2)CC3)cc(C(=O)O)c1`: the results for the EC50 in data set [1], in data set [6] and in data set [3] were 890 nM, more than 1000 nM and 5.3 nM, respectively. Besides, the Ratio EC50 in data set [2] was found to be 168.

Consider `O=C(O)c1ccc(-c2ccc3c(c2)C[C@@H](NC[C@H](O)c2ccccc2Cl)CC3)cc1`, for which the EC50 in data set [1] turned out to be 620 nM; in data set [3], 38 nM. In addition, in data set [2], the Ratio EC50 worked out at 16.3.

As to `O=C(O)c1ccc(Oc2ccc3c(c2)C[C@@H](NC[C@H](O)c2cccc(Cl)c2)CC3)s1`, the results for the EC50 in data set [1], in data set [6] and in data set [3] were 670 nM, more than 1000 nM and 5.7 nM, respectively. Moreover, the Ratio EC50 in data set [2] was found to be 117.

With `O=C(O)c1ccc(-c2ccc3c(c2)C[C@@H](NC[C@H](O)c2ccc(C(F)(F)F)cc2)CC3)cc1`, the EC50 is 775 nM in data set [1], more than 1000 nM in data set [6] and 3.5 nM in data set [3]. Besides, in data set [2], the Ratio EC50 came out at 221.

Turning to `O=C(O)c1ccc(-c2ccc3c(c2)C[C@@H](NC[C@H](O)c2cccc(Cl)c2)CC3)nc1`, the EC50 was 490 nM in data set [1] and 9.6 nM in data set [3]. For the same compound, in data set [2], the Ratio EC50 came out at 51.

With `O=C(O)c1cccnc1Oc1ccc2c(c1)C[C@@H](NC[C@H](O)c1cccc(Cl)c1)CC2`, the EC50 in data set [1] was more than 100 nM; in data set [3], 49 nM. The Ratio EC50 in data set [2] was more than 2.

As for `O=C(O)c1cc(NC2CCOCC2)cc(Oc2ccc3c(c2)C[C@@H](NC[C@H](O)c2cccc(Cl)c2)CC3)c1`, the EC50 is 340 nM in data set [1] and 1 nM in data set [3]. Also, in data set [2], the Ratio EC50 came to 340. The “Ratio AUC” value in data set [4] was determined as 0.02. Also, the Ratio in data set [5] was found to be 0.06.

On to `O=C(O)c1ccc(-c2ccc3c(c2)C[C@@H](NC[C@H](O)c2ccc(Cl)c(Cl)c2)CC3)cc1`, for which the values for the EC50 in data set [1] and in data set [3] were more than 1000 nM and 33 nM, respectively. For the same compound, the Ratio EC50 in data set [2] was more than 30.

As for `CC(C)Oc1cc(-c2ccc3c(c2)C[C@@H](NC[C@H](O)c2ccc(Cl)cc2)CC3)ccc1C(=O)O`, the values for the EC50 in data set [1] and in data set [3] were 310 nM and 0.7 nM, respectively. Further, the Ratio EC50 in data set [2] is 443.

As to `Cc1ccc(Oc2ccc3c(c2)C[C@@H](NC[C@H](O)c2cccc(Cl)c2)CC3)cc1C(=O)O`, the half-maximal effective concentration (EC50) in data set [1] was more than 1000 nM; in data set [3] it was 9 nM. Moreover, the Ratio EC50 in data set [2] was more than 111.

As for `O=C(O)c1cc(Oc2ccc3c(c2)C[C@@H](NC[C@H](O)c2cccc(Cl)c2)CC3)ccc1Cl`, the EC50 in data set [1] was more than 1000 nM; in data set [3] it was 16 nM. Further, in data set [2], the Ratio EC50 is more than 62.

Take `N#Cc1ccc([C@@H](O)CN[C@H]2CCc3ccc(-c4ccc(C(=O)O)cc4)cc3C2)cc1`: the EC50 in data set [1] was more than 1000 nM; in data set [3], 28 nM. In addition, in data set [2], the Ratio EC50 is more than 36.

Take `O=C(O)c1ccc(-c2ccc3c(c2)C[C@@H](NC[C@H](O)c2ccc(Cl)cc2)CC3)cc1F`: the EC50 in data set [1] was determined as 650 nM; in data set [3] it was 0.81 nM. In data set [2], the Ratio EC50 came to 802.

Consider `CN(C)c1cc(Oc2ccc3c(c2)C[C@@H](NC[C@H](O)c2ccc(Cl)nc2)CC3)cc(C(=O)O)c1`, for which the EC50 was determined as 270 nM in data set [1] and 1.8 nM in data set [3]. Besides, in data set [2], the Ratio EC50 amounted to 155.

In the case of `O=C(O)c1ccc(-c2ccc3c(c2)C[C@@H](NC[C@H](O)c2cccnc2)CC3)cc1`, the values for the EC50 in data set [1] and in data set [3] were more than 1000 nM and 13 nM, respectively. For the same compound, in data set [2], the Ratio EC50 is more than 77.

For the compound `O=C(O)c1cccc(Oc2ccc3c(c2)C[C@@H](NC[C@H](O)c2ccc(Cl)nc2)CC3)c1`, the EC50 worked out at 140 nM in data set [1] and 4.1 nM in data set [3]. Besides, in data set [2], the Ratio EC50 was determined as 34.

With `Cc1cc(-c2ccc3c(c2)C[C@@H](NC[C@H](O)c2ccc(Cl)cc2)CC3)ccc1C(=O)O`, the EC50 stood at 825 nM in data set [1] and 1.8 nM in data set [3]. For the same compound, the Ratio EC50 in data set [2] is 458.

As to `O=C(O)c1cccc(Oc2ccc3c(c2)C[C@@H](NC[C@H](O)c2ccc(Cl)cc2)CC3)c1`, the values for the EC50 in data set [1] and in data set [3] were 330 nM and 4.8 nM, respectively. The Ratio EC50 in data set [2] turned out to be 69.

Take `O=C(O)COc1ccc(Oc2ccc3c(c2)C[C@@H](NC[C@H](O)c2cccc(Cl)c2)CC3)cc1`: the EC50 is more than 100 nM in data set [1] and 24 nM in data set [3]. The Ratio EC50 in data set [2] is more than 4.2.
